Structures can show the parent of a compound that is named as a salt.
What was measured:
[1] = Simoons et al., Circulation 1994; cited from earlier work
Human plasma = Human plasma anticoagulation, thrombin time (TT); type: biochemical; conditions: concentration required to double the clotting time
Summary of the method: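 In plasma from human donors, spiked with a range of compound levels, an automated coagulometer recorded clot formation after thromboplastin (PT), Actin then calcium (APTT) or 10 NIH units/mL thrombin (TT); doubling concentrations were extrapolated linearly.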

[2] = Index of bioavailability (% relative activity from plasma TT, oral vs i.v.); type: in vivo; conditions: dose-adjusted AUC of plasma TT, p.o. vs i.v.
Method: Parke Davis) at 37° C. […] Assays are done in duplicate and averaged. […] Each sample population represented alternating sequential time points.

t-PA = biological target: T1, t-PA (Homo sapiens, UniProt P00750); assay: Kass for t-PA, chromogenic substrate; type: biochemical
T1 construct: purchased American Diagnostica, Greenwich, Conn
T1 sequence (P00750 36-562): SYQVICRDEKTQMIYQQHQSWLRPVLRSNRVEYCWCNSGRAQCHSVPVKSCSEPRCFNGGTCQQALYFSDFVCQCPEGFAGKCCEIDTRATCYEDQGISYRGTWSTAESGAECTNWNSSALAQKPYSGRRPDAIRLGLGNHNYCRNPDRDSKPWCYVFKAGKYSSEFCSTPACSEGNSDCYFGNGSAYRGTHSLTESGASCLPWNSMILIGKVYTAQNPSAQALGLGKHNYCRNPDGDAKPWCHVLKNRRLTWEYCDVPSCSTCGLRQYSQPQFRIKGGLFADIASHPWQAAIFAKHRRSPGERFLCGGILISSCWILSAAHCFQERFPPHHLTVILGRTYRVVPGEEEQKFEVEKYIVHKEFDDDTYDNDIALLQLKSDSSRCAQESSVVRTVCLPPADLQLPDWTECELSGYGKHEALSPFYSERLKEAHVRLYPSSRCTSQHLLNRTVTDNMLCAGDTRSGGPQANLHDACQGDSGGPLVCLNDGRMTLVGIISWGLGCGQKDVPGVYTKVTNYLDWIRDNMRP
Method: By substantially following the procedures described above for human thrombin, and using other human blood coagulation system serine proteases and proteases of the fibrinolytic system with the appropriate chromogenic substrates, identified below, selectivity of the compounds of the present invention with respect to the coagulation factor serine proteases and with respect to the fibrinolytic system serine proteases are evaluated as well as their substantial lack of interference with serine proteases of the fibrinolytic system. […] This would be important to the therapeutic use of such agents as an adjunct to streptokinase, t-PA or urokinase thrombolytic therapy and to the use of such agents as an endogenous fibrinolysis-sparing (with respect to t-PA and urokinase) antithrombotic agent. In addition to the lack of interference with the amidase activity of the fibrinolytic proteases, such fibrinolytic system sparing can be studied by the use of human plasma clots and their lysis by the respective fibrinolytic plasminogen activators.

SMILES	anticoagulant activity in man [1]	2x Clotting time TT (Human plasma) [ng/mL]	% oral/i.v. activity (Rat) [2] [%]	Kass t-PA (t-PA)
CN[C@H](Cc1ccccc1)C(=O)N1CCC[C@H]1C(=O)N[C@H](C=O)CCCNC(=N)N.O=S(=O)(O)O [D-MePhe-Pro-Arg-H sulfate]	anticoagulant in man	–	–	–
CCS(=O)(=O)N[C@H](Cc1ccccc1)C(=O)N1CCC[C@H]1C(=O)NCCCCNC(=N)N [Example 1, EtSO2 -D-Phe-Pro-Agm.HCl]	–	250	8	0.082

Reference: patent publication US5726159A, “Antithrombotic agents” (Eli Lilly and Company, priority 1995, dated 1998)
